According to patent US20240246946A1, “MODULATORS OF TREX1” (Constellation Pharmaceuticals, Inc., priority 2021, published 2024):

Assays:
full length mouse TREX1 = biological target: T1, full length mouse TREX1 (Mus musculus, UniProt Q91XB0); assay: mTREX1 Biochemical Assay (fluorescence, dsDNA substrate degradation); details: biochemical, read-out: mTREX1 IC50
T1 construct: N-terminally His-Tev tagged full length mouse TREX1; made in house; host or cells: E. coli
T1 sequence (Q91XB0 1-314): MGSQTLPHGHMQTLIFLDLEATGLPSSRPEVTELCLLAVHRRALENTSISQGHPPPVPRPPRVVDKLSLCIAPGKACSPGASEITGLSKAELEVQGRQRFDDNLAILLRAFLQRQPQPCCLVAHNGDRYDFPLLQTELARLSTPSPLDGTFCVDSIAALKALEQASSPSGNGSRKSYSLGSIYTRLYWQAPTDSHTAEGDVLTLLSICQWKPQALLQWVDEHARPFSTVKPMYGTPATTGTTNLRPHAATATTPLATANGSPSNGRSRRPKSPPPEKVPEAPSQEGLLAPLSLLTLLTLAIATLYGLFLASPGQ
In short: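 Reaction run 18 h at 25° C. with 60 nM TEX615/quencher-labelled dsDNA and 6 pM mouse TREX1 in Tris buffer (pH 7.4, 5 mM MgCl2, 1.0% DMSO), enzyme having sat 4 h with compound across 10 concentrations. EDTA quench; substrate degradation measured as fluorescence increase.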

[1] = biological target: T2, human TREX2 (residues M44-A279) (Homo sapiens, UniProt Q9BQ50); assay: hTREX2 Biochemical Assay (fluorescence, dsDNA substrate degradation); details: biochemical selectivity for hTREX1 vs hTREX2
T2 construct: human TREX2 (residues M44-A279, expressed in E. coli); made in house; host or cells: E. coli
T2 sequence (Q9BQ50 44-279 isoform Q9BQ50-1): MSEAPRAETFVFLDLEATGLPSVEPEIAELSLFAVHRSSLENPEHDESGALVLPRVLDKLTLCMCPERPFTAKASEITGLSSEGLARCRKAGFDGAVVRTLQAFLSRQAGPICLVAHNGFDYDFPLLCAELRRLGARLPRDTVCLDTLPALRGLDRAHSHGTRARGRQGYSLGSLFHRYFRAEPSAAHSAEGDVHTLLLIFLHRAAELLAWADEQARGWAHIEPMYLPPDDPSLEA
In short: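 N-His-Tev E. coli enzyme (50 pM) pre-incubated with compound 4 h at 25 °C, then 60 nM TEX615/quencher dsDNA added; 18 h at 25 °C, pH 7.4 Tris buffer with 5 mM MgCl2, 1.0% DMSO. EDTA-quenched; fluorescence 570 ex/615 em from liberated fluorophore, 10-point dose-response.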

full length human TREX1 = biological target: T3, full length human TREX1 (Homo sapiens, UniProt Q9NSU2); assay: hTREX1 Biochemical Assay (fluorescence, dsDNA substrate degradation); details: biochemical, read-out: hTREX1 IC50
T3 construct: N-terminally His-Tev tagged full length human TREX1; made in house; host or cells: E. coli
T3 sequence (Q9NSU2 1-314): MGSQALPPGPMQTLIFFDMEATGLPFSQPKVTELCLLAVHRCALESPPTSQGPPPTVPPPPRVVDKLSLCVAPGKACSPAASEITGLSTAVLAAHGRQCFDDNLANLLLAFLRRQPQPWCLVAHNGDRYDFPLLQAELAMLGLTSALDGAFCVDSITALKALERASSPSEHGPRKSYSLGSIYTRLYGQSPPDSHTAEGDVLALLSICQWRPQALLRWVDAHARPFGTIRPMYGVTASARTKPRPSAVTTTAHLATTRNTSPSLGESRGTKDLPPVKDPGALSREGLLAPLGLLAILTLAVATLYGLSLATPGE
In short: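 Cleavage of 60 nM TEX615/quencher-labelled dsDNA in pH 7.4 Tris buffer with 5 mM MgCl2, 1.0% DMSO, run 18 hours at 25° C, EDTA-quenched; fluorescence read-out.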

Compound	IC50 (full length mouse TREX1) [nM]	hTREX1 vs hTREX2 selectivity [1]	IC50 (full length human TREX1) [nM]
Cn1cc(C(c2ccccc2C#N)C(c2nc(C(=O)Nc3cnoc3)c(O)c(=O)n2C)C(F)(F)F)cn1 (single isomer, unassigned) [Example 40 D2E2]	> 10	B (B = 25 to 50-fold selective for hTREX1)	> 10
Cc1cnc(C)c(C(c2cc(F)ccc2C#N)C(C)c2nc(C(=O)Nc3cnoc3)c(O)c(=O)n2C)n1 (single isomer, unassigned) [Example 119 DIE1]	1 to 10	C (C = >50 fold selective for hTREX1)	< 1
Cc1cnc(C)c(C(c2ccccc2C#N)C(C)c2nc(C(=O)Nc3cnoc3)c(O)c(=O)n2C)n1 (single isomer, unassigned) [Example 82 D1E2]	> 10	B (B = 25 to 50-fold selective for hTREX1)	> 10
Cc1nccc(C(c2ccccc2C#N)C(C)c2nc(C(=O)Nc3cnoc3)c(O)c(=O)n2C)n1 (single isomer, unassigned) [Example 83 D2E2]	> 10	A (A = <25 fold selective for hTREX1)	> 10
Cc1ncc(C(c2ccccc2C#N)C(C)c2nc(C(=O)Nc3cnoc3)c(O)c(=O)n2C)nc1C (single isomer, unassigned) [Example 81 D1E1]	> 10	A (A = <25 fold selective for hTREX1)	> 10
Cc1n[nH]c(C)c1C(c1ccccc1C#N)C(C)c1nc(C(=O)Nc2cnoc2)c(O)c(=O)n1C (single isomer, unassigned) [Example 95 D2E1]	> 10	A (A = <25 fold selective for hTREX1)	> 10
CC(c1nc(C(=O)Nc2cnoc2)c(O)c(=O)n1C)C(c1cnn(CC(C)(C)O)c1)c1cc(F)ccc1Cl (single isomer, unassigned) [Example 92 D1E2]	> 10	A (A = <25 fold selective for hTREX1)	1 to 10
CC(c1nc(C(=O)Nc2cnoc2)c(O)c(=O)n1C)C(c1cnn(CCCN(C)C)c1)c1ccccc1C#N (single isomer, unassigned) [Example 34 D2E1]	> 10	C (C = >50 fold selective for hTREX1)	> 10
Cc1cc(C(c2cc(F)ccc2C#N)C(C)c2nc(C(=O)Nc3cnoc3)c(O)c(=O)n2C)n(C)n1 (single isomer, unassigned) [Example 111 D2E2]	> 10	A (A = <25 fold selective for hTREX1)	> 10
Cc1cc(C(c2cc(F)ccc2Cl)C(C)c2nc(C(=O)Nc3cnoc3)c(O)c(=O)n2C)n(C)n1 (single isomer, unassigned) [Example 113 D2E1]	> 10	A (A = <25 fold selective for hTREX1)	> 10
Cc1n[nH]c(C)c1C(c1ccccc1C#N)C(C)c1nc(C(=O)Nc2cnoc2)c(O)c(=O)n1C (single isomer, unassigned) [Example 95 D2E2]	> 10	A (A = <25 fold selective for hTREX1)	> 10
CC(c1nc(C(=O)Nc2cnoc2)c(O)c(=O)n1C)C(c1cnn(C(C)C)c1)c1ccccc1C#N (single isomer, unassigned) [Example 105 D2E2]	> 10	A (A = <25 fold selective for hTREX1)	> 10
Cc1cnc(C)c(C(c2cc(F)ccc2Cl)C(C)c2nc(C(=O)Nc3cnoc3)c(O)c(=O)n2C)n1 (single isomer, unassigned) [Example 121 D1E2]	> 10	A (A = <25 fold selective for hTREX1)	> 10
CC(c1nc(C(=O)Nc2cnoc2)c(O)c(=O)n1C)C(c1nnn(C)n1)c1ccccc1C#N (single isomer, unassigned) [Example 79 D2E1]	> 10	A (A = <25 fold selective for hTREX1)	1 to 10
COCCn1cc(C(c2cc(F)c(F)cc2Cl)C(C)c2nc(C(=O)Nc3cnoc3)c(O)c(=O)n2C)cn1 (single isomer, unassigned) [Example 73 D1E1]	1 to 10	C (C = >50 fold selective for hTREX1)	< 1
CC(c1nc(C(=O)Nc2cnoc2)c(O)c(=O)n1C)C(c1cnn(C)c1)c1cc(Cl)ccc1C#N (single isomer, unassigned) [Example 26 D2E1]	> 10	B (B = 25 to 50-fold selective for hTREX1)	> 10
Cc1cnc(C(c2ccccc2C#N)C(C)c2nc(C(=O)Nc3cnoc3)c(O)c(=O)n2C)c(C)n1 (single isomer, unassigned) [Example 123 D2E2]	> 10	A (A = <25 fold selective for hTREX1)	> 10
CCn1cc(C(c2cc(F)ccc2C#N)C(C)c2nc(C(=O)Nc3cnoc3)c(O)c(=O)n2C)cn1 (single isomer, unassigned) [Example 17 D2E1]	> 10	B (B = 25 to 50-fold selective for hTREX1)	> 10
COCCn1cc(C(c2cc(F)ccc2C#N)C(C)c2nc(C(=O)Nc3cnoc3)c(O)c(=O)n2C)c(C)n1 (single isomer, unassigned) [Example 103 D2E2]	> 10	A (A = <25 fold selective for hTREX1)	> 10
CC(c1nc(C(=O)Nc2cnoc2)c(O)c(=O)n1C)C(c1cnn(C)c1)c1ccc(Cl)cc1C#N (single isomer, unassigned) [Example 27 D1E2]	> 10	C (C = >50 fold selective for hTREX1)	> 10
CC(c1nc(C(=O)Nc2cnoc2)c(O)c(=O)n1C)C(c1cnn(CC(C)(C)O)c1)c1ccccc1Cl (single isomer, unassigned) [Example 86 D2E1]	> 10	A (A = <25 fold selective for hTREX1)	> 10
Cc1ncc(C(c2ccccc2Cl)C(C)c2nc(C(=O)Nc3cnoc3)c(O)c(=O)n2C)cn1 (single isomer, unassigned) [Example 44 D2E2]	> 10	A (A = <25 fold selective for hTREX1)	> 10
CC(c1nc(C(=O)Nc2cnoc2)c(O)c(=O)n1C)C(c1ccccc1C#N)c1nnnn1C (single isomer, unassigned) [Example 131 D2E1]	> 10	C (C = >50 fold selective for hTREX1)	> 10
Cc1cc(C(c2cc(F)ccc2Cl)C(C)c2nc(C(=O)Nc3cnoc3)c(O)c(=O)n2C)n(C)n1 (single isomer, unassigned) [Example 113 D1E2]	> 10	A (A = <25 fold selective for hTREX1)	> 10
CC(c1nc(C(=O)Nc2cnoc2)c(O)c(=O)n1C)C(c1cnn(CC(C)(C)O)c1)c1ccccc1Cl (single isomer, unassigned) [Example 86 D1E2]	> 10	A (A = <25 fold selective for hTREX1)	1 to 10
Cc1cc(C)n(C(c2ccccc2C#N)C(C)c2nc(C(=O)Nc3cnoc3)c(O)c(=O)n2C)n1 (single isomer, unassigned) [Example 137 D1E2]	> 10	A (A = <25 fold selective for hTREX1)	> 10
Cc1cnc(C(c2ccccc2C#N)C(C)c2nc(C(=O)Nc3cnoc3)c(O)c(=O)n2C)c(C)n1 (single isomer, unassigned) [Example 123 D2E1]	> 10	C (C = >50 fold selective for hTREX1)	1 to 10
CCn1ncc(C(c2ccccc2C#N)C(C)c2nc(C(=O)Nc3cnoc3)c(O)c(=O)n2C)c1C (single isomer, unassigned) [Example 68 D2E1]	> 10	B (B = 25 to 50-fold selective for hTREX1)	< 1
